{"source": "ChEMBL document CHEMBL5131375", "about": "“Recent Developments in the Use of Kinase Inhibitors for Management of Viral Infections” (J Med Chem, 2022)", "key": {"Influenza A virus [1]": {"tested_on": "Influenza A virus", "assay": "microbe, parasite or virus in culture", "format": "functional, organism-based", "conditions": "H7N9"}, "[2]": {"target": "Tyrosine-protein kinase JAK2 (Homo sapiens, UniProt O60674)", "sequence (O60674 whole entry)": "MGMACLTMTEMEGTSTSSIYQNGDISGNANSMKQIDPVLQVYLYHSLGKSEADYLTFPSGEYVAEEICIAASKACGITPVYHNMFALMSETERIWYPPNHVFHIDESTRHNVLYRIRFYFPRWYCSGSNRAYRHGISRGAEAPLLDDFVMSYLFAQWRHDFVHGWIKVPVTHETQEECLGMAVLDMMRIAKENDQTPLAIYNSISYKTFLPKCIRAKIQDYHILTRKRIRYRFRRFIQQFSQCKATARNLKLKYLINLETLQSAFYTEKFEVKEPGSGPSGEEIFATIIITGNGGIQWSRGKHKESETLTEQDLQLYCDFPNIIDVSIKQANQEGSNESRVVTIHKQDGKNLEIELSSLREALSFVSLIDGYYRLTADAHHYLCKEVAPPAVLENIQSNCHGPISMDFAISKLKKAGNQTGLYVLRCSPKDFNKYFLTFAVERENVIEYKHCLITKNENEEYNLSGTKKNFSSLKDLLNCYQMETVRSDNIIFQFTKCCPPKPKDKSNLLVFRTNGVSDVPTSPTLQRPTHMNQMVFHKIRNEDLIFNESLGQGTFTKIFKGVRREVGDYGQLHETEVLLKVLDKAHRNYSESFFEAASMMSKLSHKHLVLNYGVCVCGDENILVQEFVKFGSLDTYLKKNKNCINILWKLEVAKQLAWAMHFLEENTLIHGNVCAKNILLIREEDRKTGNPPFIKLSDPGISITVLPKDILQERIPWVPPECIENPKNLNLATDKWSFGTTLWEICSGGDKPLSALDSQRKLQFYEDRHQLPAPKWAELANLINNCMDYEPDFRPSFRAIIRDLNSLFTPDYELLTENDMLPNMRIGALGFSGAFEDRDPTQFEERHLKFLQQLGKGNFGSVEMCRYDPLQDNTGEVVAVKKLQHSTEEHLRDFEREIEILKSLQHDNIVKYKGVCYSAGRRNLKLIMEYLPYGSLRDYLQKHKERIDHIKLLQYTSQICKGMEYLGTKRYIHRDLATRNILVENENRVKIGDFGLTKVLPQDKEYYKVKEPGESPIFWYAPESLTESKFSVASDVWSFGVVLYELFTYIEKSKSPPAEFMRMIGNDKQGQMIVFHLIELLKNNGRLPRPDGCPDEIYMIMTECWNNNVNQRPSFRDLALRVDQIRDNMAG", "conditions": "dose 50.0 nM"}, "Influenza A virus [3]": {"tested_on": "Influenza A virus", "assay": "microbe, parasite or virus in culture", "format": "functional, organism-based", "conditions": "A/Anhui/1/2013 (H7N9)"}, "Influenza A virus [4]": {"tested_on": "Influenza A virus", "assay": "microbe, parasite or virus in culture", "format": "functional, organism-based", "conditions": "A/ck/Yamaguchi/7/2004 (H5N10)"}, "in vitro [5]": {"assay": "in vitro", "conditions": "dog, MDCK cells"}, "Influenza A virus [6]": {"tested_on": "Influenza A virus", "assay": "microbe, parasite or virus in culture", "format": "functional, organism-based", "conditions": "H5N1"}, "Influenza A virus [7]": {"tested_on": "Influenza A virus", "assay": "Antiviral activity against influenza A virus (A/WSN/1933) strain", "format": "functional, organism-based"}, "Influenza A virus [8]": {"tested_on": "Influenza A virus", "assay": "microbe, parasite or virus in culture", "format": "functional, organism-based", "conditions": "H3N2"}, "[9]": {"target": "Cyclin-dependent kinase 7 (Homo sapiens, UniProt P50613)", "sequence (P50613 whole entry)": "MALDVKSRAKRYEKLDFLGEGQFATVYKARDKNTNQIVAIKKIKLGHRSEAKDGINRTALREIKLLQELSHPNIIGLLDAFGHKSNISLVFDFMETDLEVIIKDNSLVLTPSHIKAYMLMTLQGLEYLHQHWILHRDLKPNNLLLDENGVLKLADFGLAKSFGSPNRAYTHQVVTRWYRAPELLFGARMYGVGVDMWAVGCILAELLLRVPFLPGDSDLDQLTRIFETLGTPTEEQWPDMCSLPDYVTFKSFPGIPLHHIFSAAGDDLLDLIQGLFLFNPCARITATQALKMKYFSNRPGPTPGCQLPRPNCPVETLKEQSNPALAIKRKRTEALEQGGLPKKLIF"}, "[10]": {"assay": "Cytotoxicity against human HCT-116 cells", "format": "toxicity, cell-based"}, "Zika virus [11]": {"tested_on": "Zika virus", "assay": "microbe, parasite or virus in culture"}, "Zika virus [12]": {"tested_on": "Zika virus", "assay": "Antiviral activity against ZIKV MR766 infected in 1 hr pretreated rhesus monkey LLC-MK2 cells measured after 24 to 72 hrs", "format": "functional, organism-based"}, "Murine coronavirus [13]": {"tested_on": "Murine coronavirus", "assay": "Antiviral activity against MHV", "format": "functional, organism-based"}, "Murine coronavirus [14]": {"tested_on": "Murine coronavirus", "assay": "Antiviral activity against mCoV-68 infected in african green monkey Vero cells incubated for 7 days by counting number of plaque by crystal violet staining method", "format": "functional, organism-based", "conditions": "Murine coronavirus, 68, Vero, 168 h"}, "[15]": {"assay": "Cytotoxicity against mouse NIH3T3 cells", "format": "toxicity, cell-based"}, "[16]": {"target": "Cyclin-dependent kinase 2 (Homo sapiens, UniProt P24941)"}, "[17]": {"assay": "Cytotoxicity against human astrocyte cells", "format": "toxicity, cell-based"}, "Hepatitis B virus": {"tested_on": "Hepatitis B virus", "assay": "microbe, parasite or virus in culture", "format": "functional, organism-based"}, "HepG2": {"tested_on": "HepG2", "assay": "Cytotoxicity against human HepG2 cells at 1 uM", "format": "toxicity, cell-based", "conditions": "hepg2, 1 µM"}, "in vitro [18]": {"assay": "in vitro", "conditions": "human, ccrf-cem"}, "in vitro [19]": {"assay": "in vitro", "conditions": "human, jurkat"}, "in vitro [20]": {"assay": "in vitro", "conditions": "human, u-937"}, "Human alphaherpesvirus 2": {"tested_on": "Human alphaherpesvirus 2", "assay": "Antiviral activity against HSV-2 assessed as reduction in virus titre at 10 uM relative to control", "format": "functional", "design": "scale not given: the % may be the effect or the level left"}, "[21]": {"target": "Inhibitor of nuclear factor kappa-B kinase subunit epsilon (Homo sapiens, UniProt Q14164)", "sequence (Q14164 whole entry)": "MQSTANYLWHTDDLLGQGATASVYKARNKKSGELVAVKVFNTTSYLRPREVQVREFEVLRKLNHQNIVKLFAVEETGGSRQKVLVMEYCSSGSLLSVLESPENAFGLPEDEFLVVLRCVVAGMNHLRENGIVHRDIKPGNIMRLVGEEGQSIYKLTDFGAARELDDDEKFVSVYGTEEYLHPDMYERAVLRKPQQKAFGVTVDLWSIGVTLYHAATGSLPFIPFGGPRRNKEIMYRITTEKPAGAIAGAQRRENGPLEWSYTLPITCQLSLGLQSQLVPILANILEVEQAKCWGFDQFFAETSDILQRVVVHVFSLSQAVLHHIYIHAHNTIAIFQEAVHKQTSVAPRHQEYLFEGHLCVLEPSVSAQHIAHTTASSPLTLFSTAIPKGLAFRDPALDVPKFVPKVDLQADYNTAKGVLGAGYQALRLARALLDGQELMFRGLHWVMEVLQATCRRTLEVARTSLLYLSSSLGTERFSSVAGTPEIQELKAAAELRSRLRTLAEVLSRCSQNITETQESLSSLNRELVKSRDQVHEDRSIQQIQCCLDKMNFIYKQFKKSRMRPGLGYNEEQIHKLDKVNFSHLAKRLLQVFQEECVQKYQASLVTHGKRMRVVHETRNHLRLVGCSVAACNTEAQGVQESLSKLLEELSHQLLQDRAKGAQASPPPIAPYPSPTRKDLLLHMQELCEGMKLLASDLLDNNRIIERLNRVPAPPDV", "assay": "Inhibition of IKK epsilon (unknown origin)"}, "[22]": {"assay": "Cytotoxicity against HEK cells", "format": "toxicity, cell-based", "conditions": "human"}, "in vitro [23]": {"assay": "in vitro", "conditions": "human, HeLa cells"}, "Human alphaherpesvirus 1": {"tested_on": "Human alphaherpesvirus 1", "assay": "microbe, parasite or virus in culture", "format": "functional, organism-based"}, "[24]": {"assay": "Cytotoxicity against human HCE cells", "format": "toxicity, cell-based"}, "Hepatitis C virus": {"tested_on": "Hepatitis C virus", "assay": "Antiviral activity against HCV assessed as fold reduction in virus titre at 10 uM", "format": "functional, Hepacivirus hominis"}, "in vitro [25]": {"assay": "in vitro", "conditions": "human, hek-293t"}, "Zaire ebolavirus": {"tested_on": "Zaire ebolavirus", "assay": "microbe, parasite or virus in culture", "format": "functional, organism-based"}, "[26]": {"assay": "Cytotoxicity against human LU cells", "format": "toxicity, cell-based"}, "Human betaherpesvirus 5": {"tested_on": "Human betaherpesvirus 5", "assay": "Antiviral activity against HCMV assessed as inhibition of DNA synthesis at 10 uM relative to control", "format": "functional"}, "[27]": {"target": "Protein kinase C beta type (Homo sapiens, UniProt P05771)", "sequence (P05771 whole entry)": "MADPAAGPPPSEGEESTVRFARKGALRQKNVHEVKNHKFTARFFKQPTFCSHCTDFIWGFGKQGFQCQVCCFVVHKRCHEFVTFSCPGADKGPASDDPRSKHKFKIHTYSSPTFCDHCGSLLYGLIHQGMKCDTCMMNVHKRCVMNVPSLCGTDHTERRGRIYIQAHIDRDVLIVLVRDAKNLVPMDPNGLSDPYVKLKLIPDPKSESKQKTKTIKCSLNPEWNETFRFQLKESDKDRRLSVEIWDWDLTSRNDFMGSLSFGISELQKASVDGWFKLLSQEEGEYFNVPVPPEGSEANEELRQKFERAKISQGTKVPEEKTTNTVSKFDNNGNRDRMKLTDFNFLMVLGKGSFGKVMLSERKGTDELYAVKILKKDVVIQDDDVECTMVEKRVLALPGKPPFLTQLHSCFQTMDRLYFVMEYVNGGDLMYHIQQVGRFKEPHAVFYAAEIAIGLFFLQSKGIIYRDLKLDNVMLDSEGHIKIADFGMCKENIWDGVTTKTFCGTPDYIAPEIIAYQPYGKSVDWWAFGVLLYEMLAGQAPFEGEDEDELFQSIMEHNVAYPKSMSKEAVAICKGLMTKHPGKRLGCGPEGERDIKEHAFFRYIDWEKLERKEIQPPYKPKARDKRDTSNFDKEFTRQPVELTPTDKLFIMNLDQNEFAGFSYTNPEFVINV", "assay": "Inhibition of PKCbeta2 (unknown origin)"}, "Influenza A virus [28]": {"tested_on": "Influenza A virus", "assay": "Antiviral activity against influenza A virus assessed as log reduction of virus at 5 to 10 uM", "format": "functional", "conditions": "dose 5-10 µM"}, "[29]": {"assay": "Cytotoxicity against human HL-60 cells", "format": "toxicity, cell-based"}, "Influenza B virus": {"tested_on": "Influenza B virus", "assay": "Antiviral activity against influenza B virus assessed as log reduction of virus at 5 to 10 uM", "format": "functional", "conditions": "dose 5-10 µM"}, "[30]": {"assay": "Cytotoxicity against human MCF7 cells", "format": "toxicity, cell-based"}, "[31]": {"tested_on": "Transmissible gastroenteritis virus", "assay": "Antiviral activity against TGEV assessed as log reduction in virus progeny at 4 uM", "format": "functional"}, "Murine coronavirus [32]": {"tested_on": "Murine coronavirus", "assay": "Antiviral activity against MHV assessed as log reduction in virus progeny at 4 uM", "format": "functional"}, "[33]": {"tested_on": "Porcine epidemic diarrhea virus", "assay": "Antiviral activity against PEDV assessed as log reduction in virus progeny at 4 uM", "format": "functional"}, "[34]": {"assay": "Cytotoxicity against golden hamster BSR cells", "format": "toxicity, cell-based, Mesocricetus auratus"}, "[35]": {"tested_on": "Transmissible gastroenteritis virus", "assay": "Antiviral activity against TGEV assessed as reduction in virus titre at 4 uM", "format": "functional"}, "Influenza A virus [36]": {"tested_on": "Influenza A virus", "assay": "Antiviral activity against influenza A virus infected in human A549 cells assessed as inhibition of viral replication at 4 uM relative to control", "format": "functional", "design": "scale not given: the % may be the effect or the level left"}, "[37]": {"assay": "Cytotoxicity against pig PK-15 cells", "format": "toxicity, cell-based, Sus scrofa"}, "Lyssavirus rabies": {"tested_on": "Lyssavirus rabies", "assay": "microbe, parasite or virus in culture", "format": "functional, organism-based"}, "[38]": {"tested_on": "Feline infectious peritonitis virus", "assay": "Antiviral activity against FIPV assessed as log reduction in virus progeny at 4 uM", "format": "functional"}, "[39]": {"assay": "Inhibition of PDGF (unknown origin)", "design": "species or system Homo sapiens"}}}
{"compound": "CC1=C(C)C2NC(=O)C(CN3C(=S)N([C@@H](C)c4ccccc4)C(=O)C3C3CC3)C=C2C=C1", "note": "(some centres undefined)", "values": [{"measurement": "EC50", "setting": "Influenza A virus [1]", "value": 20000, "unit": "nM"}, {"measurement": "inhibition", "setting": "[2]", "value": 61, "unit": "%"}, {"measurement": "IC50", "setting": "Influenza A virus [3]", "value": 20, "unit": "nM"}, {"measurement": "IC50", "setting": "Influenza A virus [4]", "value": 20, "unit": "nM"}, {"measurement": "CC50", "setting": "in vitro [5]", "value": 3800, "unit": "nM"}, {"measurement": "EC50", "setting": "Influenza A virus [6]", "value": 20000, "unit": "nM"}, {"measurement": "IC50", "setting": "Influenza A virus [7]", "value": 12, "unit": "nM"}, {"measurement": "EC50", "setting": "Influenza A virus [8]", "value": 20, "unit": "nM"}]}
{"compound": "CC(C)c1[nH]n(-c2c(Cl)cccc2Cl)c2nc(Cc3ccc(OCCO)cc3)nc(=O)c1-2", "values": [{"measurement": "IC50", "setting": "[9]", "value": 71, "unit": "nM"}, {"measurement": "CC50", "setting": "[10]", "value": 40, "unit": "nM"}, {"measurement": "IC50", "setting": "Zika virus [11]", "value": 90, "unit": "nM"}, {"measurement": "IC50", "setting": "Zika virus [12]", "value": 27, "unit": "nM"}]}
{"compound": "CC(C)=CCC[C@](C)(O)C1CC[C@]2(C)[C@@H]1[C@H](O)C[C@@H]1[C@@]3(C)CC[C@H](O[C@@H]4O[C@H](CO)[C@@H](O)[C@H](O)[C@H]4O[C@@H]4O[C@H](CO)[C@@H](O)[C@H](O)[C@H]4O)C(C)(C)[C@@H]3CC[C@]12C", "note": "(some centres undefined)", "values": [{"measurement": "IC50", "setting": "Murine coronavirus [13]", "value": 10000, "unit": "nM"}, {"measurement": "IC50", "setting": "Murine coronavirus [14]", "value": 10000, "unit": "nM"}, {"measurement": "CC50", "setting": "[15]", "value": "> 50000", "unit": "nM"}]}
{"compound": "CCCc1cnc(NC(=O)[C@@H](C)c2ccc(NC(C)=O)cc2)s1", "values": [{"measurement": "IC50", "setting": "[16]", "value": 31, "unit": "nM"}, {"measurement": "CC50", "setting": "[17]", "value": "> 10000", "unit": "nM"}, {"measurement": "IC50", "setting": "Zika virus [11]", "value": 90, "unit": "nM"}]}
{"compound": "Cc1n[nH]c2ccc(-c3cncc(OC[C@@H](N)Cc4c[nH]c5ccccc45)c3)cc12", "note": "[A-443654]", "values": [{"measurement": "inhibition (INH)", "setting": "Hepatitis B virus", "value": 50, "unit": "%"}, {"measurement": "Activity", "setting": "HepG2", "value": "Non-Toxic"}]}
{"compound": "O=C1Cc2c([nH]c3ccc([N+](=O)[O-])cc23)-c2ccccc2N1", "note": "[ALSTERPAULLONE]", "values": [{"measurement": "CC50", "setting": "in vitro [18]", "value": "> 1000", "unit": "nM"}, {"measurement": "CC50", "setting": "in vitro [19]", "value": "> 1000", "unit": "nM"}, {"measurement": "CC50", "setting": "in vitro [20]", "value": "> 1000", "unit": "nM"}]}
{"compound": "O=C(NCCCNc1nc(Nc2cccc(NC(=O)N3CCCC3)c2)ncc1I)c1cccs1", "note": "[BX-795]", "values": [{"measurement": "Activity", "setting": "Human alphaherpesvirus 2", "value": ">90", "unit": "%"}, {"measurement": "IC50", "setting": "[21]", "value": 41, "unit": "nM"}, {"measurement": "CC50", "setting": "[22]", "value": 46000, "unit": "nM"}, {"measurement": "CC50", "setting": "in vitro [23]", "value": 46000, "unit": "nM"}, {"measurement": "EC50", "setting": "Human alphaherpesvirus 1", "value": 10000, "unit": "nM"}, {"measurement": "CC50", "setting": "[24]", "value": 46000, "unit": "nM"}]}
{"compound": "O=c1cc(N2CCOCC2)oc2c(-c3ccccc3)cccc12", "note": "[LY-294002]", "values": [{"measurement": "fold change (FC)", "setting": "Hepatitis C virus", "value": 5}, {"measurement": "CC50", "setting": "in vitro [25]", "value": "> 20000", "unit": "nM"}, {"measurement": "EC50", "setting": "Zaire ebolavirus", "value": 1800, "unit": "nM"}]}
{"compound": "Cn1cnc2c(NCc3ccccc3)nc(NCCO)nc21", "note": "[OLOMOUCINE]", "values": [{"measurement": "CC50", "setting": "[26]", "value": "> 15000", "unit": "nM"}, {"measurement": "inhibition at 10 µM", "setting": "Human betaherpesvirus 5", "value": 50, "unit": "%"}]}
{"compound": "O=C1NC(=O)C(c2c[nH]c3ccccc23)=C1c1c[nH]c2ccccc12", "note": "[RO-316233]", "values": [{"measurement": "IC50", "setting": "[27]", "value": 16, "unit": "nM"}, {"measurement": "log(activity)", "setting": "Influenza A virus [28]", "value": 1}, {"measurement": "CC50", "setting": "[29]", "value": "> 8000", "unit": "nM"}, {"measurement": "log(activity)", "setting": "Influenza B virus", "value": 1}, {"measurement": "CC50", "setting": "[30]", "value": "> 8000", "unit": "nM"}]}
{"compound": "CC(C)(C)c1cc(C=C(C#N)C#N)cc(C(C)(C)C)c1O", "note": "[TYRPHOSTIN A9]", "values": [{"measurement": "log(activity)", "setting": "[31]", "value": 2.3}, {"measurement": "log(activity)", "setting": "Murine coronavirus [32]", "value": 2.3}, {"measurement": "log(activity)", "setting": "[33]", "value": 2.3}, {"measurement": "CC50", "setting": "[34]", "value": 150000, "unit": "nM"}, {"measurement": "log(activity)", "setting": "[35]", "value": 3}, {"measurement": "Activity", "setting": "Influenza A virus [36]", "value": 50, "unit": "%"}, {"measurement": "CC50", "setting": "[37]", "value": "> 6000", "unit": "nM"}, {"measurement": "EC50", "setting": "Lyssavirus rabies", "value": 900, "unit": "nM"}, {"measurement": "log(activity)", "setting": "[38]", "value": 2.3}, {"measurement": "IC50", "setting": "[39]", "value": 500, "unit": "nM"}]}
